Reference: PubChem BioAssay (NCI)
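Each compound was tested at five concentrations against cells in 96-well plates for 48 hours. TGI: total growth inhibition.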

How the values were obtained:
Experiment in all cases: inhibition of tumour cell growth, NCI panel, 48 h
SW-620 colon = tested on: SW-620 colon
NCI/ADR-RES ovarian = tested on: NCI/ADR-RES ovarian
MDA-MB-231 breast = tested on: MDA-MB-231 breast
SNB-19 CNS = tested on: SNB-19 CNS
HOP-92 NSCLC = tested on: HOP-92 NSCLC
NCI-H23 lung = tested on: NCI-H23 lung
SK-MEL-5 melanoma = tested on: SK-MEL-5 melanoma
OVCAR-8 ovarian = tested on: OVCAR-8 ovarian
SNB-75 CNS = tested on: SNB-75 CNS
SK-MEL-2 melanoma = tested on: SK-MEL-2 melanoma
BT-549 breast = tested on: BT-549 breast
CAKI-1 renal = tested on: CAKI-1 renal
MCF7 breast = tested on: MCF7 breast
SK-OV-3 ovarian = tested on: SK-OV-3 ovarian

Row | Compound | TGI (SW-620 colon) | TGI (NCI/ADR-RES ovarian) | TGI (MDA-MB-231 breast) | TGI (SNB-19 CNS) | TGI (HOP-92 NSCLC) | TGI (NCI-H23 lung) | TGI (SK-MEL-5 melanoma) | TGI (OVCAR-8 ovarian) | TGI (SNB-75 CNS) | TGI (SK-MEL-2 melanoma) | TGI (BT-549 breast) | TGI (CAKI-1 renal) | TGI (MCF7 breast) | TGI (SK-OV-3 ovarian)
1 | CN(C)CCNC(=O)c1cccc2nc3c(C(=O)NCCN(C)C)cccc3nc12 | 12.1 µM | > 58.1 µM | 3.4 µM | 21.6 µM | 7.83 µM | 5.76 µM | 3.02 µM | 4.67 µM | 8.12 µM | 4.16 µM | 15.9 µM | > 100 µM |  | 
2 | Cc1cc2c(cc1C)C(=O)C1(C2)Cc2cc3c(cc2C1=O)CCC3 (stereo unspecified) | > 100 µM | > 100 µM |  | > 100 µM | > 100 µM | > 100 µM | > 100 µM | > 100 µM | > 100 µM | > 100 µM | > 100 µM | > 100 µM | > 100 µM | > 100 µM
3 | CC1(C)OC(=O)C(C#N)=C1C[n+]1ccccc1 | > 10 µM | > 10 µM | > 10 µM | > 10 µM | > 10 µM | > 10 µM | > 10 µM | > 10 µM | > 10 µM | > 10 µM |  | > 10 µM | > 10 µM | > 10 µM
4 | Cc1cc(S(=O)(=O)Nc2nncn2-c2ccc(Cl)cc2)c(S)cc1Cl | > 10 µM | > 10 µM | > 10 µM | > 10 µM |  | > 10 µM | > 10 µM | > 10 µM | > 10 µM | > 10 µM | > 10 µM | > 10 µM | > 10 µM | > 10 µM
5 | NCCCNOCCCN | > 100 µM | > 100 µM | > 100 µM | > 100 µM | > 100 µM | > 100 µM | > 100 µM | > 100 µM |  | > 100 µM |  | > 100 µM | > 100 µM | > 100 µM
6 | CCOC(=O)C(=CNC(=S)N=Nc1c(O)[nH]c2ccccc12)C(=O)OCC | > 100 µM | > 100 µM | > 100 µM | > 100 µM | > 100 µM | > 100 µM | > 100 µM | > 100 µM | > 100 µM | > 100 µM |  | > 100 µM | > 100 µM | > 100 µM
7 | O[C@@H]1CCC[C@@H]2NC[C@@H](c3ccc4c(c3)OCO4)[C@H]12 | > 100 µM | > 100 µM | > 100 µM | > 100 µM | > 100 µM | > 100 µM | > 100 µM | > 100 µM | > 100 µM | > 100 µM |  | > 100 µM | > 100 µM | > 100 µM
8 | Cc1ccc(S(=O)(=O)N/N=C2\CC3CC4CCC2C4C3)cc1 (stereo unspecified) | > 100 µM |  | > 100 µM |  | > 100 µM | > 100 µM | > 100 µM | > 100 µM | > 100 µM |  | > 100 µM | > 100 µM | > 100 µM | > 100 µM
9 | COc1c(Br)cc2ccccc2c1-c1c(OC)c(Br)cc2ccccc12 | > 100 µM | > 100 µM | > 100 µM | > 100 µM | > 100 µM | > 100 µM | > 100 µM | > 100 µM | > 100 µM | > 100 µM |  | > 100 µM | > 100 µM | > 100 µM
10 | C=CCN1/C(=C2\SC(=S)N(c3ccc(C)cc3)C2=O)Sc2c1ncn(C)c2=O | > 100 µM |  |  | > 100 µM | > 100 µM | > 100 µM | > 100 µM | > 100 µM | > 100 µM | > 100 µM |  | > 100 µM |  | > 100 µM
11 | O=C(c1cccnc1)N1N=C(c2ccccc2)CC1(O)c1cc(F)c(Cl)cc1Cl (stereo unspecified) | > 100 µM | 83.7 µM | 35.4 µM | > 100 µM | 59.5 µM | > 100 µM | 27.6 µM | > 100 µM | 52.9 µM | 45.8 µM | 43.1 µM | > 100 µM |  | > 100 µM
12 | N#Cc1cc(Sc2ccc(N)c(C#N)c2)ccc1N | > 100 µM | 35.3 µM | > 100 µM | > 100 µM | > 100 µM |  | 39 µM | 55.2 µM |  | > 100 µM | > 100 µM |  | > 100 µM | > 100 µM
13 | O=C(N/N=C\c1cccc2ccccc12)Nc1cccc2ccccc12 | > 100 µM | > 100 µM | 45.8 µM | 48.9 µM |  | > 100 µM | > 100 µM | > 100 µM | 35.2 µM | > 100 µM | > 100 µM | 83.4 µM | > 100 µM | 
14 | NC(=O)CC(N)C(=O)NC(Cc1ccccc1)C(=O)NC(Cc1ccccc1)NC(=O)C(Cc1c[nH]c2ccccc12)C(=O)O (stereo unspecified) | > 100 µM | > 100 µM | > 100 µM | > 100 µM | > 100 µM | > 100 µM | > 100 µM | > 100 µM | > 100 µM | > 100 µM |  | > 100 µM | > 100 µM | > 100 µM
15 | CC(=O)O[C@H]1C[C@@H](OC(C)=O)[C@@](C)(O)[C@@H]2[C@@H](OC(C)=O)[C@@]3(O)[C@H](/C=C(/CO)[C@H]4O[C@H]4[C@@H](OC(C)=O)[C@@]12C)OC(=O)[C@@H]3C | > 25 µM | > 25 µM | > 25 µM | > 25 µM | > 25 µM | > 25 µM | > 25 µM | > 25 µM | 17.5 µM | > 25 µM | > 25 µM | > 25 µM |  | > 25 µM
16 | CCOC(=O)CCN1C(=O)C(=O)N(c2ccc(OC)cc2)C1=S | > 100 µM | > 100 µM | > 100 µM | > 100 µM | > 100 µM | > 100 µM | > 100 µM | > 100 µM | > 100 µM | > 100 µM |  | > 100 µM |  | > 100 µM
17 | Cc1c(Cl)cccc1N=NC(=O)NNc1cccc(Cl)c1C | 30.8 µM |  | 37.1 µM | 41.9 µM |  | 33.2 µM | 28.6 µM | 26.6 µM | 32.5 µM | 26.4 µM | 27.7 µM |  |  | 
